# Results as given in patent publication US20050020542A1, “Method of modulating sodium ion absorption in epithelial cells” (priority 2001, published 2005).
# Entries after “also recorded” stand apart in the source; their conditions may differ.
# Test system: Ca2+ activated Cl- secretion
# Experiment: ATP-stimulated Cl- secretion after amiloride in Ussing chambers
# Type: cell-based, human
# Conditions: repeated exposure 1-2.5 μM over 96 hours, then amiloride, then apical ATP
# Method: FIG. 3 is a graph showing the effect of repeated exposure to INO-E2 on physiological parameters in CFHNE. 2.5 μM INO-E2 was added every 24 hrs for 4 days. Effects on Isc in CFHNE, passage 2 are depicted. Every 24 hrs medium in the basolateral compartment was exchanged with fresh medium containing 2.5 μM INO-E2. On the 4th day the monolayers were mounted in Ussing chambers and basal Isc, conductance and resistance measured. After a stable baseline was reached, amiloride was added to determine the amiloride-inhibitable-Isc. Under these conditions, subsequent apical addition of the Ca^2+-mobilizing agent, ATP, allows Cl^− secretion to be examined in isolation.
# The therapeutic potential of INO-E2 was investigated by using protocols that model in vivo treatments. In this experiment the effects of repeated exposure to a low dose of INO-E2 (2.5 μM) on basal Isc and responsiveness to calcium-mobilizing agonists (ATP) in human nasal CF epithelia (CFHNE) was tested. […] T here was no apparent difference in responses to compound added to the apical or basolateral compartment. This series of experiments provides information that useful for deriving the optimal therapeutic dose and delivery schedule for in vivo tests.
compound,measurement,value
"CCCCCCCCOC1C(OC(=O)CCC)C(OP(=O)(OCOC(=O)CC)OCOC(=O)CC)C(OP(=O)(OCOC(=O)CC)OCOC(=O)CC)C(OP(=O)(OCOC(=O)CC)OCOC(=O)CC)C1OP(=O)(OCOC(=O)CC)OCOC(=O)CC (stereo not shown) [INO-E2, 2-O-butyryl-1-O-octyl-myo-inositol 3,4,5,6-tetrakisphosphate octakis (propionoxymethyl) ester]",response to ATP (Ca2+ activated Cl- secretion) in treated monolayers,augments subsequent stimulation of Ca^2+ activated Cl^− secretion; also recorded: elevated
